Structures can show the parent of a compound that is named as a salt. Where two headings read alike, the source gives them in different places.
Assays:
Assay type in all cases: in vivo, male Wister rats
[1] = test system: Water-Immersion stress-Induced Ulcers; assay: Water-Immersion stress-Induced Ulcers; details: Rattus norvegicus, po, 10 h, read-out: Water-Immersion Stress, inhibiting ratio; for inhibition in vivo at 50 mg/kg: dose 50 mg/kg orally 10 minutes before the exposure to stress; for inhibition in vivo at 20 mg/kg: dose 20 mg/kg orally 10 minutes before the exposure to stress
Experimental: (§1) Experiments on Hydrochloric acid-Ethanol-Induced Ulcers, Aspirin-Induced Ulcers, Water-Immersion stress-Induced Ulcers, Shay's Ulcers and Serotonin-Induced Ulcers were carried out using male Wister rats weighing about 200g in groups of six. Experiments on Ischemia-Reperfusion -Induced Gastric Lesions were carried out using male SD rats weighing about 250g in groups of six. Other than for the tests on Ischemia-Reperfusion-Induced Gastric Lesions Models, the test compounds were prepared by mixing thoroughly with polyethyleneglycol and 0.5% sodium carboxymethyl cellulose solution and emulsifying vigorously. Activities against respective ulcer models were evaluated by an inhibiting ratio obtained by dividing the difference between the ulceration indexes of the non-administered group and the test compound group by the non-administered group.
Each rat which had been fasted for 15 hours was immobilized in a stress cage and immersed to chest depth in a water bath at 21°C. Each rat was slaughtered after 10 hours, a length of ulcer formed at the fundus gland area of stomach was measured and ulceration index was calculated based on the length. The test compound was administered orally 10 minutes before the exposure to stress.
(§2) The results of Aspirin-Induced Ulcers, Water-immersion stress-Induced Ulcers, Shay's Ulcers, Serotonin-induced Ulcers and Ischemia-Reperfusion-Induced Gastric lesions are shown in Table 3.

[2] = test system: Aspirin-Induced Ulcers; assay: Aspirin-Induced Ulcers; details: Rattus norvegicus, 9 h, 5 minutes before 150 mg/kg of aspirin orally, read-out: Aspirin, inhibiting ratio; for inhibition in vivo at 50 mg/kg: dose 50 mg/kg intraduodenally at pylorus ligation
Experimental: as §1
In each rat which had been fasted for 24 hours, the pyloric end of the stomach was ligated, and simultaneously the test compound was administered intraduodenally, and after 5 minutes, 150 mg/kg of aspirin was administered orally, respectively. After 9 hours from ligation, each rat was slaughtered, a length of ulcer formed at the fundus gland area of stomach was measured and ulceration index was calculated based on the length.
as §2

[3] = test system: Shay's Ulcers; assay: Shay's Ulcers; details: Rattus norvegicus, intraduodenal, 14 h, read-out: Shay, inhibiting ratio; for inhibition in vivo at 300 mg/kg: dose 300 mg/kg intraduodenally immediately after the ligation; for inhibition in vivo at 50 mg/kg: dose 50 mg/kg intraduodenally immediately after the ligation
Experimental: as §1
In each rat which had been fasted for 48 hours, the pyloric end of stomach was ligated, and each was kept without giving any food or water for 14 hours. Each rat was then slaughtered, and area of ulcer formed in the forestomach was measured and ulceration inded was calculated based on the area. The test compound was administered intraduodenally immediately after the ligation.
as §2

[4] = test system: Serotonin-Induced Ulcers; assay: Serotonin-Induced Ulcers; details: Rattus norvegicus, 4.5 h, read-out: Serotonin, inhibiting ratio; for inhibition in vivo at 20 mg/kg: dose 20 mg/kg intraduodenally 30 minutes before Serotonin creatinine sulfate 30 mg/kg subcutaneously
Experimental: as §1
To each rat which had been fasted for 24 hours, 30 mg/kg of a solution of serotonin creatinine sulfate in a saline solution was administered subcutaneously. Each rat was then slaughtered after 4 and a half hours and area of gastric mucosal lesion formed facing the center line of greater curvature of the corpus ventriculi of stomach was measured and ulceration index was calculated based on the area. The test compound was administered intraduodenally 30 minutes before the administration of the Serotonin creatinine sulfate.
as §2

[5] = test system: Hydrochloric acid-Ethanol-Induced Ulcers; assay: Hydrochloric acid-Ethanol-Induced Ulcers; details: Rattus norvegicus, intraduodenal, read-out: Inhibition ratio(%); for inhibition in vivo at 10 mg/kg: dose 10 mg/kg intraduodenally one hour before hydrochloric acid - 60% ethanol
Experimental: as §1
To each rat which had been fasted for 24 hours was orally administered 0.5ml of a mixed solution of 150 mM hydrochloric acid - 60% ethanol per 100g of weight. Each rat was slaughtered after one hour, a length of ulcer formed at the fundus gland area of stomach was measured and ulceration index was calculated based on the length. The test compound was administered intraduodenally one hour or three hours before the administration of mixed solution of hydrochloric acid - 60% ethanol.

[6] = 3 h, Table 1, dose 20 mg/kg intraduodenally three hours before hydrochloric acid - 60% ethanol

`NC[C@H]1CC[C@H](C(=O)Oc2ccc(CCC(=O)O)cc2)CC1` [Cetraxatehydrochloride, reference compound] showed an inhibition in vivo at 300 mg/kg ([1]; dose 300 mg/kg orally 10 minutes before the exposure to stress) of 45%, an inhibition in vivo at 300 mg/kg ([2]; dose 300 mg/kg intraduodenally at pylorus ligation) of 33% and an inhibition in vivo at 300 mg/kg [3] of 11%.

`CC1=CC(OC(=O)c2ccccc2)C(O)C(C)(C)CC1=O` (stereo not shown) [AU190, 4-benzoyloxy-5-hydroxy-2,6,6-trimethyl-2-cyclohepten-1-one] showed an inhibition in vivo at 50 mg/kg [1] of 45%, an inhibition in vivo at 50 mg/kg [2] of 55% and an inhibition in vivo at 20 mg/kg [4] of 69%. It also gave an inhibition in vivo at 50 mg/kg [3] of 55% and an inhibition in vivo at 20 mg/kg [5, 6] of 66%.

In the case of `COc1cc(C=CC(=O)OC2C(O)C=C(C)C(=O)CC2(C)C)ccc1O` (stereo not shown) [AU414, 4-hydroxy-5-(4-hydroxy-3-methoxycinnamoyloxy)-2,6,6-trimethyl-2-cyclohepten-1-one], the inhibition in vivo at 20 mg/kg [1] is reported as 41% and the inhibition in vivo at 20 mg/kg [5, 6] is reported as 89%.

Molecule `COC1C=C(C)C(=O)CC(C)(C)C1OC(=O)c1ccc([N+](=O)[O-])cc1[N+](=O)[O-]` (stereo not shown) [AU407, 5-(2,4-dinitrobenzoyloxy)-4-methoxy-2,6,6-trimethyl-2-cyclohepten-1-one] has an inhibition in vivo at 50 mg/kg [1] of 50%, an inhibition in vivo at 50 mg/kg [2] of 71% and an inhibition in vivo at 20 mg/kg [4] of 41%. For the same molecule, the inhibition in vivo at 20 mg/kg [5, 6] was 82%.

For `CC1=CC(O)C(O)C(C)(C)CC1=O` (stereo not shown) [Saishin N, 4,5-dihydroxy-2,6,6-trimethyl-2-cycloheptene-1-one], the inhibition in vivo at 50 mg/kg [1] was 49%, the inhibition in vivo at 100 mg/kg ([1]; dose 100 mg/kg orally 10 minutes before the exposure to stress) was 62% and the inhibition in vivo at 50 mg/kg [2] was 52%. It also gave an inhibition in vivo at 100 mg/kg ([2]; dose 100 mg/kg intraduodenally at pylorus ligation) of 60%, an inhibition in vivo at 20 mg/kg [4] of 13% and an inhibition in vivo at 50 mg/kg ([4]; dose 50 mg/kg intraduodenally 30 minutes before Serotonin creatinine sulfate 30 mg/kg subcutaneously) of 36%. It also gave an inhibition in vivo at 100 mg/kg ([3]; dose 100 mg/kg intraduodenally immediately after the ligation) of 49%, an inhibition in vivo at 300 mg/kg [3] of 58% and an inhibition in vivo at 10 mg/kg ([5]; 1 h, Table 2) of 35%. The inhibition in vivo at 20 mg/kg ([5]; 1 h, Table 2, dose 20 mg/kg intraduodenally one hour before hydrochloric acid - 60% ethanol) was 88%, the inhibition in vivo at 20 mg/kg [5, 6] was 15% and the inhibition in vivo at 50 mg/kg ([5]; 3 h, Table 1, dose 50mg/kg intraduodenally three hours before hydrochloric acid - 60% ethanol) was 83%.

Molecule `COC1C=C(C)C(=O)CC(C)(C)C1O` (stereo not shown) [AU154, 5-hydroxy-4-methoxy-2,6,6-trimethyl-2-cyclohepten-1-one] has an inhibition in vivo at 50 mg/kg [1] of 17%, an inhibition in vivo at 20 mg/kg [4] of 46% and an inhibition in vivo at 50 mg/kg [3] of 22%. The inhibition in vivo at 10 mg/kg ([5]; 1 h, Table 2) was 67% and the inhibition in vivo at 20 mg/kg [5, 6] was 21%.

`CC1=CC(OC(=O)C=Cc2ccc(N)cc2)C(O)C(C)(C)CC1=O` (stereo not shown) [AU401, 4-(4-aminocinnamoyloxy)-5-hydroxy-2,6,6-trimethyl-2-cyclohepten-1-one] showed an inhibition in vivo at 20 mg/kg [4] of 68% and an inhibition in vivo at 20 mg/kg [5, 6] of 49%.

With `CC1=CC(O)C(OC(=O)C=Cc2ccccc2)C(C)(C)CC1=O` (stereo not shown) [AU205, 5-cinnamoyloxy-4-hydroxy-2,6,6-trimethyl-2-cyclohepten-1-one] the inhibition in vivo at 20 mg/kg [1] was 42%, the inhibition in vivo at 50 mg/kg [2] was 53% and the inhibition in vivo at 20 mg/kg [4] was 80%. The inhibition in vivo at 50 mg/kg [3] was 50% and the inhibition in vivo at 20 mg/kg [5, 6] was 83%.

For `CC1=CC(OC(=O)c2cccc(N)c2)C(O)C(C)(C)CC1=O` (stereo not shown) [AU210, 4-(3-aminobenzoyloxy)-5-hydroxy-2,6,6-trimethyl-2-cyclohepten-1-one], the inhibition in vivo at 20 mg/kg [5, 6] was 26%.

With `CO[C@H]1C[C@H](C)C(=O)CC(C)(C)C1OC(=O)c1ccccc1` (relative stereo) [AU123A, 2,4-trans-5-benzoyloxy-4-methoxy-2,6,6-trimethylcycloheptan-1-one] the inhibition in vivo at 20 mg/kg [5, 6] was 34%.

Work on `CC(=O)OC1C=C(C)C(=O)CC(C)(C)C1OC(C)=O` (stereo not shown) [AU102, 4,5-diacetoxy-2,6,6-trimethyl-2-cyclohepten-1-one] yielded an inhibition in vivo at 10 mg/kg ([5]; 1 h, Table 2) of 75% and an inhibition in vivo at 20 mg/kg [5, 6] of 49%.

`CC1=CC(OC(=O)c2ccco2)C(O)C(C)(C)CC1=O` (stereo not shown) [AU403, 4-(2-furoyloxy)-5-hydroxy-2,6,6-trimethyl-2-cyclohepten-1-one] showed an inhibition in vivo at 20 mg/kg [5, 6] of 31%.

`CC1=CC(=O)C2OC1(OC(=O)c1ccccc1)CC2(C)C` (stereo not shown) [AU168, 1-benzoyloxy-2,6,6-trimethyl-8-oxabicyclo [3.2.1] oct-2-en-4-one] was tested, and the inhibition in vivo at 20 mg/kg [5, 6] was 46%.

`COC12CC(C)(C)C(O1)C(OC(C)=O)C=C2C` (stereo not shown) [AU158, 4-acetoxy-1-methoxy-2,6,6-trimethyl-8-oxabicyclo [3.2.1] oct-2-ene] was tested, and the inhibition in vivo at 5 mg/kg ([5]; 1 h, Table 2, dose 5 mg/kg intraduodenally one hour before hydrochloric acid - 60% ethanol) was 33%.

`CC1=CC(OC(=O)c2ccc(N(C)C)cc2)C(O)C(C)(C)CC1=O` (stereo not shown) [AU236, 4-(4-dimethylaminobenzoyloxy)-5-hydroxy-2,6,6-trimethyl-2-cyclohepten-1-one] gave an inhibition in vivo at 20 mg/kg [5, 6] of 45%.

`CC(=O)OC1CC(C)C(=O)CC(C)(C)C1OC(=O)c1ccccc1` (stereo not drawn) [AU192, 2,4-cis-4-acetoxy-5-benzoyloxy-2,6,6-trimethylcycloheptan-1-one] gave an inhibition in vivo at 20 mg/kg [5, 6] of 49%.

For `CC(=O)OC1C(OC(=O)c2cccc(Cl)c2)CC(C)C(=O)CC1(C)C` (stereo not drawn) [AU199, 2,4-cis-5-acetoxy-4-(3-chlorobenzoyloxy)-2,6,6-trimethylcycloheptan-1-one], the inhibition in vivo at 20 mg/kg [5, 6] was 29%.

For `COc1cc(C=CC(=O)OC2C=C(C)C(=O)CC(C)(C)C2O)ccc1O` (stereo not shown) [AU416, 5-hydroxy-4-(4-hydroxy-3-methoxycinnamoyloxy)-2,6,6-trimethyl-2-cyclohepten-1-one], the inhibition in vivo at 20 mg/kg [5, 6] was 72%.

For `CC1=CC(OC(=O)c2cccc([N+](=O)[O-])c2)C(O)C(C)(C)CC1=O` (stereo not shown) [AU200, 5-hydroxy-4-(3-nitrobenzoyloxy)-2,6,6-trimethyl-2-cyclohepten-1-one], the inhibition in vivo at 20 mg/kg [5, 6] was 50%.

Molecule `COC12CC(C)(C)C(O1)C(OC(=O)C=Cc1ccc(O)cc1)C=C2C` (stereo not shown) [AU508, 4-(4-hydroxycinnamoyloxy)-1-methoxy-2,6,6-trimethyl-8-oxabicyclo [3.2.1] oct-2-ene] has an inhibition in vivo at 20 mg/kg [5, 6] of 82%.

Work on `CC1=CC(OC(=O)c2ccc(N)cc2)C2OC1(OCCO)CC2(C)C` (stereo not shown) [AU249, 4-(4-aminobenzoyloxy)-1-(2-hydroxyethoxy)-2,6,6-trimethyl-8-oxabicyclo [3.2.1] oct-2-ene] yielded an inhibition in vivo at 20 mg/kg [1] of 33% and an inhibition in vivo at 20 mg/kg [5, 6] of 65%.

`COC1C(OC(=O)c2ccccc2)C=C(C)C(=O)CC1(C)C` (stereo not shown) [AU223, 4-benzoyloxy-5-methoxy-2,6,6-trimethyl-2-cyclohepten-1-one] showed an inhibition in vivo at 20 mg/kg [5, 6] of 49%.

`CC(=O)OC1C=C(C)C(=O)CC(C)(C)C1OC(=O)c1ccccc1` (stereo not shown) [AU189, 4-acetoxy-5-benzoyloxy-2,6,6-trimethyl-2-cyclohepten-1-one] was tested, and the inhibition in vivo at 20 mg/kg [5, 6] was 63%.

In the case of `CC1=CC(O)C(OC(=O)c2ccc(N)cc2N)C(C)(C)CC1=O` (stereo not shown) [AU241, 5-(2,4-diaminobenzoyloxy)-4-hydroxy-2,6,6-trimethyl-2-cyclohepten-1-one], the inhibition in vivo at 20 mg/kg [5, 6] is reported as 37%.

Molecule `CC(=O)OC1CC(C)C(=O)CC(C)(C)C1OC(C)=O` (stereo not drawn) [AU117, 2,4-cis-4,5-diacetoxy-2,6,6-trimethylcycloheptan-1-one] has an inhibition in vivo at 20 mg/kg [4] of 60% and an inhibition in vivo at 20 mg/kg [5, 6] of 62%.

— patent EP0528699B1, “Saishin N derivatives, process for their preparation and anti-ulcer agents containing them” (TOKYO TANABE COMPANY LIMITED, priority 1991, dated 1993)
